In paper PMC7219108, “Pisum sativum Defensin 1 Eradicates Mouse Metastatic Lung Nodules from B16F10 Melanoma Cells” (International Journal of Molecular Sciences, 2020):

Experiments:
[1] = system: B16F10 cells; assay: SYTOXGreen uptake (membrane permeabilization), B16F10 cells; format: cell-based, murine; settings: 0.0001% H2O2, 30 min
Procedure: Figure 2 Psd1 promotes B16F10 live cell membrane permeabilization as monitored by SYTOX Green fluorescence. (A) Psd1 untreated and hydrogen peroxide-treated B16F10 cells. (B) A total of 1.5 × 10^4 B16F10 cells were incubated with 3 or 50 µM Psd1 for 30 min. (C) 1.5 × 10^4 B16F10 cells were incubated with 50 µM Psd1 for 1 h. All experiments were performed at 37 °C. Nucleus staining is shown in green (SYTOXGreen), and mitochondria are shown in red (MitoTracker Red CMXRos). Images are shown at 20× magnification. […] (E) Psd1 induces apoptosis in B16F10 cells. B16F10 cells were treated with 50 µM Psd1 for 24 h and labeled with propidium iodide, and the DNA content was analyzed by flow cytometry for the sub-G0/G1 profile. At least two independent experiments were performed. TEXT PRINTED IN THE PICTURE: (E) Control: Sub-G1: 4.4% | (E) Psd1: Sub-G1: 60.6% (50μM)
Images were obtained in the X, Y, and Z planes of the image, giving the image a 3-dimensional depth (Z-stack) at 100× magnification with a Zeiss Cell Observer Yokogawa Spinning Disk confocal microscope (Cell Observed SD, Carl-Zeiss, Oberkochen, Germany) located in the Microscopia Óptica de Luz Gustavo de Oliveira Castro (Plamol) platform in Universidade Federal do Rio de Janeiro. To measure the mean fluorescence intensity (MFI), Zen Lite Blue (Carl-Zeiss, Oberkochen, Germany) software was used. On average, thirty cells per field were analyzed in fourteen fields by experiments. Then, the region of interest (ROI), specifically the nucleus and mitochondria, was tagged on the cells photographed for fluorescence analysis, which is given by the software from the intensity of the pixels. Subsequently, the statistical test was performed using GraphPad Prism version 7.4, and the values presented are averages with the corresponding standard deviations (SDs).
B16F10 cells were trypsinized and counted, and 1.5 × 10^4 cells/well in DMEM containing 0.1% (w/v) bovine serum albumin BSA were plated in a cell-view glass bottom culture dish with four compartments (Thermo Fisher Scientific Inc, Maryland, USA) and then incubated at 37 °C overnight to adhere. Post-treatment, the cells were treated with 3 or 50 µM Psd1 for 30 or 60 min and maintained at the same temperature. Cells treated with only water or 0.0001% H2O2 for 30 min were used as the negative and positive controls, respectively. Washes with saline were carried out between the additions of each probe followed by incubation at room temperature. The cells were incubated with 1 µL of SG, 1.5 µL of MitoTracker Red CMXRos, and 2 µL of DAPI for 10, 20, and 10 min, respectively. The fluorescent images were acquired by confocal microscopy.

[2] = system: B16F10 cells; assay: Glucosylceramide depletion study on Psd1 entrance in B16F10 cells; format: cell-based, murine; settings: 20 µM PPMP, 1 h, without Psd1
Procedure: Figure 4 GlcCer reduction inhibits the entrance of FITC-Psd1 into B16F10 cancer cells. B16F10 cells (1.5 × 10^4) were incubated with or without 20 µM PPMP for 1 h followed by treatment with or without 9 µM FITC-Psd1 for 2 h. Fixed cells were stained with Vybrant™ Alexa Fluor™ 594 and DAPI. (a) B16F10 cells without treatments (−PPMP, −Psd1); (b) B16F10 cells treated with Psd1 for 2 h (–PPMP, +Psd1 (2 h)); (c) B16F10 cells treated with PPMP (+PPMP, −Psd1); (d) B16F10 cells treated with PPMP plus Psd1 (+PPMP, +Psd1 (2 h)). Pictures were acquired at 40× magnification. Inset zoom images are at 100× magnification. At least two experiments were performed independently.
B16F10 cells (1.5 × 10^4) in cover glass were previously incubated with 20 µM DL-threo-1-phenyl-2-palmitoylamino-3-morpholino-1-propanol (PPMP, Sigma-Aldrich Brasil, São Paulo, Brazil) inhibitor for 60 min followed by treatment with 9 µM Psd1 for 30 min or 2 h. The cells were fixed on glass slides with 4% paraformaldehyde plus 4% sucrose for 10 min and then stained with a Vybrant Alexa Fluor 594 Lipid Raft Labeling Kit (Thermo Fisher Scientific Inc, Maryland, USA). Briefly, 1.25 µg/mL cholera toxin subunit B (CT-B) and 160× diluted anti-CT-B were incubated with cells for 10 min each at 4 °C. Three PBS wash steps were performed between each stage. […]

[3] = molecular target: T1, recombinant cyclin F-GST; assay: SPR; Biacore X, CM5 chip, 25 °C; cyclin F-GST immobilised by amine coupling (10 mM sodium acetate pH 4.0); Psd1 10-240 µM injected at 15 µL/min for 4 min in 10 mM HEPES, 150 mM NaCl, pH 7.4; Psd1-GST curves subtracted; global fit, 1:1 Langmuir model; settings: both partners purified
T1 chain: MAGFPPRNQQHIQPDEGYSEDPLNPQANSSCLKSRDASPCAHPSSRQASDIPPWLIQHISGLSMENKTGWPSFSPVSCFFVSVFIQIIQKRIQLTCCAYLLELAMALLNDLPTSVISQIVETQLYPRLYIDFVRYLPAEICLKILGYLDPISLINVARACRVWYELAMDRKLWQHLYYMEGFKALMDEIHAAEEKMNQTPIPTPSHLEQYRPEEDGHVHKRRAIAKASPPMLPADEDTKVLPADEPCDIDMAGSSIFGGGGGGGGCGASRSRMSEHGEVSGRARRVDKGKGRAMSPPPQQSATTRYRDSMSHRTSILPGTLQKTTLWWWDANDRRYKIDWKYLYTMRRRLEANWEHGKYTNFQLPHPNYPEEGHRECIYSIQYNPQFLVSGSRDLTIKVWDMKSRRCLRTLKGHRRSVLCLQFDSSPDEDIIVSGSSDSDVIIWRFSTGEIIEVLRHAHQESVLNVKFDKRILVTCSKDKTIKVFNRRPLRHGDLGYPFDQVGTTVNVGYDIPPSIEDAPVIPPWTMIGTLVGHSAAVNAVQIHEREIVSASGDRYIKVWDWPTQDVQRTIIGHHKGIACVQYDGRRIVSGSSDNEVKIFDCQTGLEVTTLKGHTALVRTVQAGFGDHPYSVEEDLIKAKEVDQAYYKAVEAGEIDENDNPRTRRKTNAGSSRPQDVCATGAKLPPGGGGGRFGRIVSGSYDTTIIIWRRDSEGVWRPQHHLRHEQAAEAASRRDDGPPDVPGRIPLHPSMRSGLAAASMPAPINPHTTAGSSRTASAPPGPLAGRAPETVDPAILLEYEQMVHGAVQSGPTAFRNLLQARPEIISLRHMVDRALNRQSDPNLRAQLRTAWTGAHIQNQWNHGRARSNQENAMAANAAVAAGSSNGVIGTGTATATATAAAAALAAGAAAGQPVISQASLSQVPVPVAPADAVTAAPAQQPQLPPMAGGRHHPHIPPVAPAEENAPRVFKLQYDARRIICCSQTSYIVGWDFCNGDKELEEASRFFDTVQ

OO [hydrogen peroxide, reference compound]
SYTOXGreen fluorescence, positive control [1]: green fluorescence signal increased significantly

CCCCCCCCCCCCCCCC(=O)N[C@H](CN1CCOCC1)[C@H](O)c1ccccc1 (racemic) [PPMP, DL-threo-1-phenyl-2-palmitoylamino-3-morpholino-1-propanol]
CT-B / Alexa Fluor 594 red signal (lipid raft; GlcCer) [2]: significant reduction in the bright red signal

B1: Pisum sativum defensin 1 (peptide, UniProt P81929 1-46, looked up)
chain: KTCEHLADTYRGVCFTNASCDDHCKNKAHLISGTCHNWKCFCTQNC
notes: Pisum sativum defensin 1 (Psd1), 46-amino acid residue plant defensin from pea seeds; also called Psd1; pea defensin Psd1; source: expressed and purified as previously described [11], first step HiPrep 26/60 Sephacryl S-100 HR; the abstract says Psd1 can be expressed in Pichia pastoris
Kd [3]: 1500 µM
